1 compound from patent publication US5952473A, “Reagent and kit for determining isoprenylating activity and inhibition thereof” (priority 1993, dated 1999) can be followed below.

This experiment concerns the target T1, protein:farnesyl transferase (Oryctolagus cuniculus, UniProt G1SFC8+G1T7D9).
T1 construct: immobilised CAAX peptide A and 3H-FPP as substrates
Nature of the experiment: Inhibition of protein:farnesyl transferase activity in rabbit reticulocyte lysate (pepAsep/pepBsep, 3H-FPP). The format is biochemical. The following applies: read-out: IC50 -value, 80 pmol peptide on Sepharose beads, 0.7 μM 3H-FPP, 30 min, 37° C., pepAsep minus pepBsep dpm. The procedure: Commercially available rabbit reticulocyte lysate contains enzymes necessary for protein-isoprenylation, such as protein:farnesyl transferase activity (Vorburger, K., Kitten, G. T. and Nigg, E. G., EMBO J. 8 (1989) 4007-4013) and protein:geranylgeranyl transferase (Maltese, W. A. and Robishaw, J. D., J. Biol. Chem. 265 (1990) 18071-18074). Using pepAsep (example I) as substrate and pepBsep (example I) as control the assay of protein:farnesyl transferase activity was performed as follows: In 25 μl of a mixture containing 5 μl of pepAsep or pepBsep (both containing an equal quantity of peptide), 13 μl rabbit reticulocyte lysate (promega), 0.5 mM MgCl2, 1 mM DTT, 50 mM Tris-HCl (pH 7.4) and [^3 H]-farnesyl pyrophosphate (^3 H-FPP; concentration as indicated in the figures; specific radioactivity 15 Ci/mmol; ARC, USA) the incubation was performed at 37° C. for 30 min with continuous shaking. […] The radioactivity bound to the Sepharose was measured in a Packaged Tricarb liquid scintillation counter. […]
80 pmol of pepAsep and pepBsep/5 μl Sepharose were incubated for 30 minutes in the presence of 0.7 μM of [^3 H]-FPP and the indicated concentrations of the farnesyl pyrophosphate analogues FPPA1 and FPPA2 as mentioned in Example IV. The farnesylation activity was calculated as ^3 H-dpm bound to pepAsep minus the pepBsep-bound-dpm and expressed as percentage of control (without inhibitor).

Molecules are shown by their SMILES.

As a reminder, the IC50 is the concentration at which inhibition is half-maximal. Take `CC(C)=CCCC(C)=CCCC(C)=CCP(=O)(O)OP(=O)(O)O` [FPPA2, farnesyl phosphonophosphate]: the IC50 was determined as 290 ± 20 nM.
